# Data: patent US20250085201A1, “SUBSTITUTED QUADRUPOLAR FLUORESCENT DYES FOR LIVE CELL IMAGING” (Northwestern University, priority 2023, published 2025)
# Columns and labels:
# [1] = system: MCF-7 breast cancer cells; assay: Cell uptake and live cell laser scanning confocal imaging; format: cell-based; conditions: for uptake and intracellular distribution (confocal images): 24 h, λex=405 nm
# Protocol: Because of its low cytotoxicity and emission (FIG. 3) in the green region (548 nm) at micromolar concentrations (ΦF=0.15), water-soluble 9·4Cl was subjected to live cell imaging with MCF-7 breast cancer cells. Living cells treated with the tetracationic cyclophane at 50 and 20 μM (FIG. 7) and as low as 1 μM (FIG. 10) concentrations, were imaged by laser scanning confocal microscopy.
# MCF-7 Breast cancer cells were grown in standard Dulbecco's modified eagle medium (DMEM), which was supplemented with 10% Fetal Bovine Serum (FBS) and 1% Penicillin-Streptomycin (Corning). Cells were seeded into an 8-well imaging coverglass chamber (manufacturer-CellVis) or multiwell plate using phenol red free DMEM about 24 h prior to treatment. Dye 9·4Cl was resuspended in deionized H2O before being diluted to their final concentrations in the cell culture media. Cells were treated with the dye for 24 h prior to imaging. Uptake assays were carried out at concentrations from 1-50 μM, including a vehicle control (untreated). For the cell growth assays, cells were treated with the dye for 24 h at a range of concentrations from 0.1-50 μM.
# Confocal imaging was performed on a Leica SP8 laser scanning confocal microscope on a DMi8 […] stand with LAS X software in the Biological Imaging Facility (BIF) at Northwestern University. Uptake images were taken with a 63×/1.4 NA objective, scanning at a zoom of two with a pinhole of one Airy unit (AU) at 600 Hz with a galvo scanner and line averaging of two. Images were 92.35×92.35 μm (1024×1024) with 10 slices in the z direction with a step size of 0.3 μm (total stack volume 3.0 μm). A single excitation wavelength (405 nm) was used at a power of approximately 14 μW. For the emission collection, a Leica spectral Hybrid (HyD) detector set to collect a wavelength range of 500-650 nm (with a gain of 24%) was used. A transmitted light image was also collected simultaneously using the timeline photomultiplier (TL-PMT). Images were processed with FIJI/ImageJ (NIH) and settings were kept consistent throughout the series of images. Images presented are maximum intensity projections.
# [2] = Steady-state UV/Vis absorption and fluorescence emission spectra; format: physicochemical; conditions: micromolar concentrations
# Protocol: Fluorescent dyes 1-6, 7·2PF6, 8·2PF6, 9·4PF6 and 9·4Cl were dissolved in THF (1-5), MeCN (6, 7·2PF6, 8·2PF6 and 9.4PF6) and H2O (9.4Cl), respectively, to afford 10 μM solutions prior to spectroscopic analysis. For comparison, their normalized (i) UV/Vis absorption (FIG. 2) and (ii) the fluorescence emission (FIG. 3) spectra of quadrupolar dyes are overlayed, displaying a large range of S1 absorbance and emission maxima, which rely highly on their quadrupolarity that is correlated to the electron-deficiency of the ARs.
# Fluorescent dyes were dissolved in the appropriate solvents to afford 1 mM solutions prior to spectroscopic analysis. A portion of 30 μL of a 1 mM solution was diluted by adding a selected solvent to a sample with a total volume of 3000 μL, affording a 1×10^−5 M solution. UV/Vis Absorption spectra were recorded in glass cuvettes on a UV-3600 Shimadzu spectrophotometer. Steady-state emission spectra were acquired in quartz cuvettes with optical path-lengths of 10 mm containing the solution being analyzed using a HORIBA Fluoromax4 spectrofluorometer, which was equipped with an integrating sphere for determining the absolute photoluminescence quantum yield.
# [3] = Transient absorption (fsTA/nsTA) and time-resolved fluorescence spectroscopy; format: physicochemical; conditions: in H2O
compound,measurement,setting,value
COc1cc2c(OC)cc1-c1cc[n+](cc1)Cc1ccc(cc1)C[n+]1ccc(cc1)-c1cc(OC)c(cc1OC)-c1cc[n+](cc1)Cc1ccc(cc1)C[n+]1ccc-2cc1 [9·4Cl],uptake and intracellular distribution (confocal images),"[1]; 50 μM and 10 μM, emission 500-650 nm",taken up by living cells and concentrated in intracellular compartments
same,uptake and intracellular distribution (confocal images),"[1]; MCF-7, 1 μM, emission 500-650 nm",taken up by living cells and concentrated in intracellular compartments
same,fluorescence in cells,"[1]; MCF-7, 405 nm laser excitation, emission 500-650 nm",fluoresces brightly in cells
same,cell uptake,"[1]; MCF-7 cells, 1-50 μM",readily taken up by cells
same,cell uptake at low treatment concentrations,[1]; as low as 1 μM,readily taken up by cells
same,emission in the green region,[2],548 nm
same,CT state lifetime,[3],2.69±0.02 ns
same,rate constant k1 from TA data,[3],(1.4 ± 0.3 ps)^−1 (ps)^−1
same,non-radiative decay rate constant kNR,[3]; kNR = kobs(1 − ΦF),(3.16 ± 0.02 ns)^−1 (ns)^−1
